Laboratory results from patent US20240246964A1 (Arbutus Biopharma Corporation, priority 2021, published 2024).

These molecules were tested against human PD-L1 (Homo sapiens (Human), UniProt Q9NZQ7) (assay: T cell activation luciferase reporter cell culture system (T Cell Activation Assay)). Conditions: luciferase reporter assay; PD-L1 aAPC/CHO-K1 cells with PD-1 effector Jurkat T cells.
Format: cell-based

Sequence of human PD-L1 (Q9NZQ7 19-290): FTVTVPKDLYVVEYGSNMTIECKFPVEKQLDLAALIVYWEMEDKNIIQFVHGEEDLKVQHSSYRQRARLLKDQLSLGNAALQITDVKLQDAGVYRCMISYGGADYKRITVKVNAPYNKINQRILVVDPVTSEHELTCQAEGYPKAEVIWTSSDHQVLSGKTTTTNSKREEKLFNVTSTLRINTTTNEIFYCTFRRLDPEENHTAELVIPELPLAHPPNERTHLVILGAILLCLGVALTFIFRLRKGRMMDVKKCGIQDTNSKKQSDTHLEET

Compound	EC50
COc1cc(-c2nccc(-c3cccc(-c4ccc(CNC[C@@H]5CCC(=O)N5)c(OC)n4)c3Cl)c2Cl)cc2c1CN(CC(=O)O)CC2 [Cmpd 151, (S)-2-(6-(3-chloro-4-(2-chloro-3-(6-methoxy-5-((((5-oxopyrrolidin-2-yl)methyl)amino)methyl)pyridin-2-yl)phenyl)pyridin-2-yl)-8-methoxy-3,4-dihydroisoquinolin-2(1H)-yl)acetic acid]	77.3 nM
COCC(=O)N1CCC(NCc2ccc(-c3cccc(-c4ccnc(-c5ccc(CN6CC7(C6)CN(C(C)=O)C7)c(OC)c5)c4Cl)c3Cl)nc2OC)CC1 [Example 491, 1-(4-(((6-(3-(2-(4-((6-Acetyl-2,6-diazaspiro[3.3]heptan-2-yl)methyl)-3-methoxyphenyl)-3-chloropyridin-4-yl)-2-chlorophenyl)-2-methoxypyridin-3-yl)methyl)amino)piperidin-1-yl)-2-methoxyethan-1-one]	31.8 nM
COc1nc(-c2cccc(-c3ccnc(-c4cc5c(=O)n(C)c(CNC6CC(C)(O)C6)nn5c4)c3Cl)c2Cl)ccc1CNC[C@@H]1CCC(=O)N1 (stereo partly drawn) [Cmpd 102, (S)-6-(3-chloro-4-(2-chloro-3-(6-methoxy-5-((((5-oxopyrrolidin-2-yl)methyl)amino)methyl)pyridin-2-yl)phenyl)pyridin-2-yl)-2-(((3-hydroxy-3-methylcyclobutyl)amino)methyl)-3-methylpyrrolo[2,1-f][1,2,4]triazin-4(3H)-one]	342 nM
COc1cc(-c2nccc(-c3cccc(-c4ccc(CN[C@H]5CC[C@H](O)CC5)c(OC)n4)c3Cl)c2Cl)ccc1CN1CC2(CNC(=O)C2)C1 [Example 515, 2-(4-(3-Chloro-4-(2-chloro-3-(5-((((1r,4r)-4-hydroxycyclohexyl)-amino)methyl)-6-methoxypyridin-2-yl)phenyl)pyridin-2-yl)-2-methoxybenzyl)-2,6-diazaspiro[3.4]octan-7-one]	17.8 nM

Other lines, results leading:

EC50	Compound
13.5 nM	COc1cc(-c2nccc(-c3cccc(-c4ccc(CNC5CCN(C(=O)CO)CC5)c(OC)n4)c3Cl)c2Cl)ccc1CNC1CCN(C(C)=O)CC1 [Example 533, 1-(4-(((6-(3-(2-(4-(((1-Acetylpiperidin-4-yl)amino)methyl)-3-methoxyphenyl)-3-chloropyridin-4-yl)-2-chlorophenyl)-2-methoxypyridin-3-yl)methyl)amino)piperidin-1-yl)-2-hydroxyethan-1-one]
143 nM	COc1nc(N[C@H]2CCc3c(-c4nccc(-c5ccc6c(CNC[C@@H]7CCC(=O)N7)cn(C)c6n5)c4Cl)cccc32)c(C(F)(F)F)nc1CNC[C@@H]1CCC(=O)N1 [Example 532, (S)-5-((((6-(3-Chloro-2-((S)-1-((6-methoxy-5-(((((S)-5-oxopyrrolidin-2-yl)methyl)amino)methyl)-3-(trifluoromethyl)pyrazin-2-yl)amino)-2,3-dihydro-1H-inden-4-yl)pyridin-4-yl)-1-methyl-1H-pyrrolo[2,3-b]pyridin-3-yl)methyl)amino)methyl)pyrrolidin-2-one]
8.22 nM	COc1cc(-c2nccc(-c3cccc(-c4ccc(CN5CC6(COC6)C5)c(OC)n4)c3Cl)c2Cl)ccc1CN1CC2(COC2)C1 [Example 387, 6-((6-(3-(2-(4-((2-Oxa-6-azaspiro[3.3]heptan-6-yl)methyl)-3-methoxyphenyl)-3-chloropyridin-4-yl)-2-chlorophenyl)-2-methoxypyridin-3-yl)methyl)-2-oxa-6-azaspiro[3.3]heptane]
≥ 10000 nM	COc1cc(-c2ncnc(-c3cccc(-c4ccc(CNC5CCN(C(C)=O)CC5)c(OC)n4)c3Cl)c2OC)ccc1CNC1CCN(C(C)=O)CC1 [Example 717, 1-(4-(((6-(3-(6-(4-(((1-Acetylpiperidin-4-yl)amino)methyl)-3-methoxyphenyl)-5-methoxypyrimidin-4-yl)-2-chlorophenyl)-2-methoxypyridin-3-yl)methyl)amino)piperidin-1-yl)ethan-1-one]
